Laboratory results: ChEMBL document CHEMBL4831520, “Discovery of First-in-Class Dual PARP and EZH2 Inhibitors for Triple-Negative Breast Cancer with Wild-Type BRCA” (J Med Chem, 2021)

Tests used:
MCF7 = test: cells; format: functional, cell-based; conditions: Homo sapiens, MCF7, 72 h
Description: Antiproliferative activity against human MCF7 cells assessed as cell viability after 72 hrs by MTT assay

MDA-MB-468 = test: cells; format: functional, cell-based; conditions: Homo sapiens, MDA-MB-468, 72 h
Description: Antiproliferative activity against human MDA-MB-468 cells assessed as cell viability after 72 hrs by MTT assay

MDA-MB-231 = test: cells; format: functional, cell-based; conditions: Homo sapiens, MDA-MB-231, 72 h
Description: Antiproliferative activity against human MDA-MB-231 cells assessed as cell viability after 72 hrs by MTT assay

MCF-10A = test: cells; format: ADME, cell-based; conditions: Homo sapiens, 72 h
Description: Antiproliferative activity against human MCF-10A cells assessed as cell viability after 72 hrs by MTT assay

[1] = target: T1, Histone-lysine N-methyltransferase EZH2 (Homo sapiens, UniProt Q15910)
Target sequence in this assay (Q15910 whole entry): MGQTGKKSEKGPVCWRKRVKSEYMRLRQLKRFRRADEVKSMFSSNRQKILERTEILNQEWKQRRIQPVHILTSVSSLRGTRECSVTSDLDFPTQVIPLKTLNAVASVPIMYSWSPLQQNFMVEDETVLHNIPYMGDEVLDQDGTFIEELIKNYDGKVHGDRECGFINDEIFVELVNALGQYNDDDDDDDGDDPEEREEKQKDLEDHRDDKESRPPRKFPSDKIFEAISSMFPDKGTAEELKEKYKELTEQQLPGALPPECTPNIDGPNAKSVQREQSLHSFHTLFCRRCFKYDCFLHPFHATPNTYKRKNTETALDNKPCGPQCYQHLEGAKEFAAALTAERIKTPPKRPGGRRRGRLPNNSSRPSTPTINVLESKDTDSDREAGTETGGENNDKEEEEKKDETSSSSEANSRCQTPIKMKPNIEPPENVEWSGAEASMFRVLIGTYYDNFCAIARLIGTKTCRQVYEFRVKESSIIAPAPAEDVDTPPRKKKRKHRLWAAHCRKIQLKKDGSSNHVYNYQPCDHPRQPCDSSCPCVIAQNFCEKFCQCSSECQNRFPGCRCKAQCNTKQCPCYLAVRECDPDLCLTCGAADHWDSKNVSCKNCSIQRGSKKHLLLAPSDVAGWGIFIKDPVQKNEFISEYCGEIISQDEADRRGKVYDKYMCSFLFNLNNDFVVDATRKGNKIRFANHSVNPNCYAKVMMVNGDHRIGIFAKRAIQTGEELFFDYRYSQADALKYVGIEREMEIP
Description: Inhibition of recombinant PRC2 complex (unknown origin) assessed as kd/ka using H3K27me0 peptide substrate incubated for 3 hrs by HMT assay

[2] = target: T1, Histone-lysine N-methyltransferase EZH2; remark: listed apart in the source
Target sequence in this assay (Q15910 whole entry): as above
Description: Inhibition of recombinant PRC2 complex (unknown origin) assessed as dissociation rate constant using H3K27me0 peptide substrate incubated for 3 hrs by HMT assay

[3] = target: T1, Histone-lysine N-methyltransferase EZH2; conditions: time 3.0 hrs
Target sequence in this assay (Q15910 whole entry, looked up): as the sequence (Q15910 whole entry) above

[4] = target: T1, Histone-lysine N-methyltransferase EZH2; remark: listed apart in the source
Target sequence in this assay (Q15910 whole entry): as above

| IC50 (MCF7) [µM] | IC50 (MDA-MB-468) [µM] | IC50 (MDA-MB-231) [µM] | Kd [1] [s⁻¹] | Kd [2] [s⁻¹] | Ka [3] | IC50 [4] [µM] | Structure (SMILES) | IC50 (MCF-10A) [µM] |
| --- | --- | --- | --- | --- | --- | --- | --- | --- |
| 48.4 | 29.7 | 25 |  |  |  |  | Cc1cc(C)c(CNC(=O)c2cccc(-c3ccc(N4CCN(C(=O)c5cc(Cc6n[nH]c(=O)c7ccccc67)ccc5F)CC4)nc3)c2)c(=O)[nH]1 | > 50 |
| > 50 | > 50 | > 50 |  |  |  |  | CCN(c1cc(-c2ccc(N3CCN(C(=O)c4cc(Cc5n[nH]c(=O)c6ccccc56)ccc4F)CC3)nc2)cc(C(=O)NCc2c(C)cc(C)[nH]c2=O)c1C)C1CCOCC1 | > 50 |
| > 50 | > 50 | > 50 |  |  |  |  | Cc1cc(C)c(CNC(=O)c2cc(-c3ccc(N4CCN(C(=O)c5cc(Cc6n[nH]c(=O)c7ccccc67)ccc5F)CC4)nc3)cc3c2ccn3C)c(=O)[nH]1 | > 50 |
| 21.2 | 2.78 | 8.73 | 38.77 | 0.04302 | 1.11 10^6/M/s |  | C=C(C)C(=O)N(CC)c1cc(-c2ccc(N3CCN(C(=O)c4cc(Cc5n[nH]c(=O)c6ccccc56)ccc4F)CC3)nc2)cc(C(=O)NCc2c(C)cc(C)[nH]c2=O)c1C | > 50 |
| > 50 | 28.8 | > 50 |  |  |  |  | Cc1cc(C)c(CNC(=O)c2ccc(C)c(-c3ccc(N4CCN(C(=O)c5cc(Cc6n[nH]c(=O)c7ccccc67)ccc5F)CC4)nc3)c2)c(=O)[nH]1 | > 50 |
| 38 | 15.2 | 23.2 |  |  |  |  | Cc1cc(C)c(CNC(=O)c2cc(-c3ccc(N4CCN(C(=O)c5cc(Cc6n[nH]c(=O)c7ccccc67)ccc5F)CC4)nc3)cc(N(C)C)c2C)c(=O)[nH]1 | > 50 |
| 44.2 | 1940 | 26.1 |  |  |  |  | COc1cc(C)c(C(=O)NCc2c(C)cc(C)[nH]c2=O)cc1-c1ccc(N2CCN(C(=O)c3cc(Cc4n[nH]c(=O)c5ccccc45)ccc3F)CC2)nc1 | > 50 |
| > 50 | > 50 | > 50 |  |  |  |  | Cc1cc(C)c(CNC(=O)c2cc(-c3ccc(N4CCN(C(=O)c5cc(Cc6n[nH]c(=O)c7ccccc67)ccc5F)CC4)nc3)cc3c2cnn3C(=O)N(C)C)c(=O)[nH]1 | > 50 |
| > 50 | > 50 | > 50 |  |  |  |  | Cc1cc(C)c(CNC(=O)c2cc(-c3ccc(N4CCN(C(=O)c5cc(Cc6n[nH]c(=O)c7ccccc67)ccc5F)CC4)nc3)cc([N+](=O)[O-])c2)c(=O)[nH]1 | > 50 |
| > 50 | > 50 | > 50 |  |  |  |  | Cc1cc(C)c(CNC(=O)c2cc(-c3ccc(N4CCN(C(=O)c5cc(Cc6n[nH]c(=O)c7ccccc67)ccc5F)CC4)nc3)cc3c2cnn3C)c(=O)[nH]1 | > 50 |
| 19.5 | 9.97 | 9.26 | 21.44 | 0.06934 | 3.23 10^6/M/s | 0.0108 | CC[C@H](C)n1nc(C)c2c(C(=O)NCc3c(C)cc(C)[nH]c3=O)cc(-c3ccc(N4CCNCC4)nc3)cc21 | > 50 |
| 33.2 | 3.89 | 26.1 |  |  |  |  | CCCC(=O)Nc1cc(-c2ccc(N3CCN(C(=O)c4cc(Cc5n[nH]c(=O)c6ccccc56)ccc4F)CC3)nc2)cc(C(=O)NCc2c(C)cc(C)[nH]c2=O)c1C | > 50 |
| 18.2 | 2.11 | 2.82 | 31.74 | 0.02027 | 6.39 10^5/M/s |  | CCC(=O)N(CC)c1cc(-c2ccc(N3CCN(C(=O)c4cc(Cc5n[nH]c(=O)c6ccccc56)ccc4F)CC3)nc2)cc(C(=O)NCc2c(C)cc(C)[nH]c2=O)c1C | > 50 |
| 30.4 | 8.24 | 22.1 |  |  |  |  | Cc1cc(C)c(CNC(=O)c2cc(-c3ccc(N4CCN(C(=O)c5cc(Cc6n[nH]c(=O)c7ccccc67)ccc5F)CC4)nc3)cc(NC(=O)CCC(=O)N(C)C)c2C)c(=O)[nH]1 | > 50 |
| > 50 | 35.6 | 36.9 |  |  |  |  | COC1CCN(C(=O)c2cc(Cc3n[nH]c(=O)c4ccccc34)ccc2F)CC1 [AZD2461] | > 50 |
| > 50 | 16.5 | > 50 |  |  |  |  | Cc1cc(C)c(CNC(=O)c2cc(-c3ccc(N4CCN(C(=O)c5cc(Cc6n[nH]c(=O)c7ccccc67)ccc5F)CC4)nc3)cc(NC(C)C)c2C)c(=O)[nH]1 | > 50 |

| IC50 (MCF7) [µM] | IC50 (MDA-MB-468) [µM] | IC50 (MDA-MB-231) [µM] | Kd [1] [s⁻¹] | Kd [2] [s⁻¹] | Ka [3] | IC50 [4] [µM] | Structure (SMILES) | IC50 (MCF-10A) [µM] |
| --- | --- | --- | --- | --- | --- | --- | --- | --- |
| 47.5 | 21.6 | 33.5 |  |  |  |  | Cc1cc(C)c(CNC(=O)c2cc(-c3ccc(N4CCN(C(=O)c5cc(Cc6n[nH]c(=O)c7ccccc67)ccc5F)CC4)nc3)cc3c2ccn3C(C)C)c(=O)[nH]1 | > 50 |
| 20 | 0.76 | 9.42 | 25.46 | 0.1116 | 4.54 10^6/M/s |  | Cc1cc(C)c(CNC(=O)c2cc(-c3ccc(N4CCN(C(=O)c5cc(Cc6n[nH]c(=O)c7ccccc67)ccc5F)CC4)nc3)cc(NC(=O)CC(C)C)c2C)c(=O)[nH]1 | > 50 |
| 37.4 | 12.1 | 1920 |  |  |  |  | Cc1cc(C)c(CNC(=O)c2cc(-c3ccc(N4CCN(C(=O)c5cc(Cc6n[nH]c(=O)c7ccccc67)ccc5F)CC4)nc3)cc(N)c2C)c(=O)[nH]1 | > 50 |
| 17.7 | 0.33 | 8.72 | 18.37 | 0.09155 | 4.98 10^6/M/s |  | CCC(=O)Nc1cc(-c2ccc(N3CCN(C(=O)c4cc(Cc5n[nH]c(=O)c6ccccc56)ccc4F)CC3)nc2)cc(C(=O)NCc2c(C)cc(C)[nH]c2=O)c1C | > 50 |
| > 50 | 28.3 | 30.2 |  |  |  |  | Cc1cc(C)c(CNC(=O)c2cc(-c3ccc(N4CCN(C(=O)c5cc(Cc6n[nH]c(=O)c7ccccc67)ccc5F)CC4)nc3)ccc2C)c(=O)[nH]1 | > 50 |
| > 50 | 17.3 | 46 |  |  |  |  | CNc1cc(-c2ccc(N3CCN(C(=O)c4cc(Cc5n[nH]c(=O)c6ccccc56)ccc4F)CC3)nc2)cc(C(=O)NCc2c(C)cc(C)[nH]c2=O)c1C | > 50 |
| 40.2 | 17.9 | 25.8 |  |  |  |  | Cc1cc(C)c(CNC(=O)c2cc(-c3ccc(N4CCN(C(=O)c5cc(Cc6n[nH]c(=O)c7ccccc67)ccc5F)CC4)nc3)cc3c2cnn3C(C)C)c(=O)[nH]1 | > 50 |
| > 50 | > 50 | > 50 |  |  |  |  | C=CCn1ncc2c(C(=O)NCc3c(C)cc(C)[nH]c3=O)cc(-c3ccc(N4CCN(C(=O)c5cc(Cc6n[nH]c(=O)c7ccccc67)ccc5F)CC4)nc3)cc21 | > 50 |
| > 50 | > 50 | 43.4 |  |  |  |  | Cc1cc(C)c(CNC(=O)c2cc(-c3ccc(N4CCN(C(=O)c5cc(Cc6n[nH]c(=O)c7ccccc67)ccc5F)CC4)nc3)cc(C(F)(F)F)c2)c(=O)[nH]1 | > 50 |
| > 50 | 32.5 | > 50 |  |  |  |  | Cc1cc(C(=O)NCc2c(C)cc(C)[nH]c2=O)cc(-c2ccc(N3CCN(C(=O)c4cc(Cc5n[nH]c(=O)c6ccccc56)ccc4F)CC3)nc2)c1 | > 50 |
| > 50 | 9.56 | 32.3 |  |  |  |  | CCNc1cc(-c2ccc(N3CCN(C(=O)c4cc(Cc5n[nH]c(=O)c6ccccc56)ccc4F)CC3)nc2)cc(C(=O)NCc2c(C)cc(C)[nH]c2=O)c1C | > 50 |
| 12.1 | 0.41 | 2.63 | 14.56 | 0.01586 | 1.09 10^6/M/s | 0.0365 | CC(=O)Nc1cc(-c2ccc(N3CCN(C(=O)c4cc(Cc5n[nH]c(=O)c6ccccc56)ccc4F)CC3)nc2)cc(C(=O)NCc2c(C)cc(C)[nH]c2=O)c1C | > 50 |
| > 50 | > 50 | > 50 |  |  |  |  | Cc1cc(C)c(CNC(=O)c2cc(-c3ccc(N4CCN(C(=O)c5cc(Cc6n[nH]c(=O)c7ccccc67)ccc5F)CC4)nc3)cc([N+](=O)[O-])c2C)c(=O)[nH]1 | > 50 |
| 30.1 | 2.21 | 17.9 |  |  |  |  | C=C(C)C(=O)Nc1cc(-c2ccc(N3CCN(C(=O)c4cc(Cc5n[nH]c(=O)c6ccccc56)ccc4F)CC3)nc2)cc(C(=O)NCc2c(C)cc(C)[nH]c2=O)c1C | > 50 |
| 26.2 | 9.56 | 18.4 |  |  |  |  | CCN(C(C)=O)c1cc(-c2ccc(N3CCN(C(=O)c4cc(Cc5n[nH]c(=O)c6ccccc56)ccc4F)CC3)nc2)cc(C(=O)NCc2c(C)cc(C)[nH]c2=O)c1C | > 50 |
| > 50 | > 50 | > 50 |  |  |  |  | CCn1ccc2c(C(=O)NCc3c(C)cc(C)[nH]c3=O)cc(-c3ccc(N4CCN(C(=O)c5cc(Cc6n[nH]c(=O)c7ccccc67)ccc5F)CC4)nc3)cc21 | > 50 |
